Active and inactive are the calls of the source. No cut-off for these calls is given here.
Columns and labels:
[1] = Inhibitory activity against yeast alpha-glucosidase; active; details: Saccharomyces cerevisiae
[2] = molecular target: Sucrase-isomaltase, intestinal (Rattus norvegicus) (UniProt P23739); experiment: Inhibitory activity against rat alpha-glucosidase; moderate activity observed
[3] = Inhibitory activity against yeast alpha-glucosidase; mild activity observed; details: Saccharomyces cerevisiae
[4] = molecular target: Sucrase-isomaltase, intestinal (Rattus norvegicus) (UniProt P23739); experiment: Inhibitory activity against rat alpha-glucosidase; mild activity observed

Chain of Sucrase-isomaltase, intestinal (Rattus norvegicus) (P23739 1-1013 limits assumed): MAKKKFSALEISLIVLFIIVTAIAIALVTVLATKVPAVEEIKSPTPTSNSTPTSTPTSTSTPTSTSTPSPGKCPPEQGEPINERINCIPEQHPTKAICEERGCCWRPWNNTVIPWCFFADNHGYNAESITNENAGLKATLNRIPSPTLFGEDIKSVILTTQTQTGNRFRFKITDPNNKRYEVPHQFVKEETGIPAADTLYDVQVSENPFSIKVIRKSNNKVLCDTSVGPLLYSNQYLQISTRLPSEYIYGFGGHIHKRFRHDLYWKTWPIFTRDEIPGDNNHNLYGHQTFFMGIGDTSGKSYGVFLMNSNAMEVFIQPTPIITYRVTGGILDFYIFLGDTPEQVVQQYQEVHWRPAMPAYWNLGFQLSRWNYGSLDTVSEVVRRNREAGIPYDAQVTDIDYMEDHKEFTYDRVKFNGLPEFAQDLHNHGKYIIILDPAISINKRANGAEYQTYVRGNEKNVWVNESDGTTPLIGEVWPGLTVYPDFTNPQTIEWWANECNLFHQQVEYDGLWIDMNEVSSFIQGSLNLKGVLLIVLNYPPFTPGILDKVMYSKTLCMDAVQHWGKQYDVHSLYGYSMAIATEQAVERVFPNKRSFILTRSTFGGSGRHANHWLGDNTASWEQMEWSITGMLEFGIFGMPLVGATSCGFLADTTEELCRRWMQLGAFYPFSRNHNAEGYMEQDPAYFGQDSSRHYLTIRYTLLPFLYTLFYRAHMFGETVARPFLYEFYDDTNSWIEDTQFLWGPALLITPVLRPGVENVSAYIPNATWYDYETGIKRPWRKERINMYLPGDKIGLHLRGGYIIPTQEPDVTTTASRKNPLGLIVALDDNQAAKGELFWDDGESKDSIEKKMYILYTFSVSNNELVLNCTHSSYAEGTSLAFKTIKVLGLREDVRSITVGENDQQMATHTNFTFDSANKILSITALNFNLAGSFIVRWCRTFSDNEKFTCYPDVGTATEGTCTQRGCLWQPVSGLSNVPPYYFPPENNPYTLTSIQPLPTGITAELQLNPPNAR
Chain of Sucrase-isomaltase, intestinal (Rattus norvegicus) (P23739 1014-1841 limits assumed): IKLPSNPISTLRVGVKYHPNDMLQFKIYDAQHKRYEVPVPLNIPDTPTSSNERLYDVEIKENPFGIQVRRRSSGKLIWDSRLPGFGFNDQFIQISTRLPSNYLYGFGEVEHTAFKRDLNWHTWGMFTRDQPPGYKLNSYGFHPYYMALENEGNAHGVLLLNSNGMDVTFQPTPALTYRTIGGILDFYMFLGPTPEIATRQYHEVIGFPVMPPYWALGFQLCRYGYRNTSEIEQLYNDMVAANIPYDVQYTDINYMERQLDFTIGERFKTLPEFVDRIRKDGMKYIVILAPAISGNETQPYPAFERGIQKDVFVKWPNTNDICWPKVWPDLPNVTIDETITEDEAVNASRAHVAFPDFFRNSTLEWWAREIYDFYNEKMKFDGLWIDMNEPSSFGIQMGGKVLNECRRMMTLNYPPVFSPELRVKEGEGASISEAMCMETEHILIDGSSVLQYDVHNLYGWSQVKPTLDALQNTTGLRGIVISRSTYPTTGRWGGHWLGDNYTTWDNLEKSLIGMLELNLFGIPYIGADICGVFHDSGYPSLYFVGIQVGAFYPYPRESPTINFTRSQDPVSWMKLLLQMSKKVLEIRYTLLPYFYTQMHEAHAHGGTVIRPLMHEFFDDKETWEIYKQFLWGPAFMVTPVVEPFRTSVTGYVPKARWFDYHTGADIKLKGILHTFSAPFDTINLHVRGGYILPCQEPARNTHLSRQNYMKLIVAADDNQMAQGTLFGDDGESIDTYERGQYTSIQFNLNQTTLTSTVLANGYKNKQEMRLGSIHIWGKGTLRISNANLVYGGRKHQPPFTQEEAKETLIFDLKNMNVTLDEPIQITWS

SMILES	inhibition [1]	inhibition [2]	inhibition [3]	inhibition [4]
COc1ccc(/C=C/c2cc(O)cc(O[C@@H]3C[C@H](CO)[C@@H](O)[C@H](O)[C@H]3O)c2)cc1				Weak activity
COc1ccc(/C=C/c2cc(O)cc(O)c2)cc1O	Active			
COc1cc(O)c2c(c1)C(=O)c1cc(C)cc(O)c1C2=O			Weak activity	Weak activity

Continued, values first:

inhibition [1]	inhibition [2]	inhibition [3]	inhibition [4]	SMILES
Active	moderate activity observed			COc1cc(O[C@@H]2C[C@H](CO)[C@@H](O)[C@H](O)[C@H]2O)c2c(O)c(C(C)=O)c(C)cc2c1
Active	moderate activity observed			Cc1cc(O)c2c(c1)C(=O)c1cccc(O[C@@H]3C[C@H](CO)[C@@H](O)[C@H](O)[C@H]3O)c1C2=O
		Weak activity	Weak activity	Cc1cc(=O)c2c(O)cc(O)cc2o1

Reference: ChEMBL document CHEMBL1146818, “Yeast and mammalian alpha-glucosidase inhibitory constituents from Himalayan rhubarb Rheum emodi Wall.ex Meisson” (Bioorg Med Chem Lett, 2004)
